Where two headings read alike, the source gives them in different places.
Key:
Type in all cases: in vivo
[1] = test system: ragweed (common ragweed, Ambrosia elatior); test: Test B pre-/postemergence plant response
Outline: (§1)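 Evaluation is visual, about 10 days after application, rating injury from 0 (none) to 100 (complete control) relative to untreated controls. Application was a preemergence soil spray on seeded pots or a postemergence spray on one- to two-leaf plants.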

[2] = test system: Italian ryegrass (Lolium multiflorum); test: Test B pre-/postemergence plant response
Outline: as §1

[3] = test system: kochia (Kochia scoparia); test: Test B pre-/postemergence plant response
Outline: as §1

[4] = test system: velvetleaf (Abutilon theophrasti); test: Test D pre-/postemergence plant response; conditions: Abutilon theophrasti; for pest or weed control at 31 g/ha: 31 g ai/ha; for pest or weed control at 62 g/ha: 62 g ai/ha; for pest or weed control at 125 g/ha: 125 g ai/ha
Outline: (§2)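 Ratings were visual, 0 = no effect to 100 = complete control, taken against untreated controls after 13 to 15 days in a greenhouse. Chemicals, formulated in non-phytotoxic surfactant-containing solvent, went onto soil (loam/sand) at planting for preemergence, or onto 1- to 4-leaf plants (2–18 cm) for postemergence.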

[5] = test system: large (Lg) crabgrass (Digitaria sanguinalis); test: Test D pre-/postemergence plant response; conditions: Digitaria sanguinalis; for pest or weed control at 16 g/ha: 16 g ai/ha; for pest or weed control at 31 g/ha: 31 g ai/ha; for pest or weed control at 62 g/ha: 62 g ai/ha; for pest or weed control at 125 g/ha: 125 g ai/ha
Outline: as §2

[6] = test system: morningglory (Ipomoea coccinea); test: Test D pre-/postemergence plant response; conditions: Ipomoea; for pest or weed control at 31 g/ha: 31 g ai/ha; for pest or weed control at 62 g/ha: 62 g ai/ha; for pest or weed control at 125 g/ha: 125 g ai/ha
Outline: as §2

[7] = test system: waterhemp (common waterhemp, Amaranthus rudis); test: Test D pre-/postemergence plant response; conditions: Amaranthus tuberculatus; for pest or weed control at 31 g/ha: 31 g ai/ha; for pest or weed control at 62 g/ha: 62 g ai/ha; for pest or weed control at 125 g/ha: 125 g ai/ha
Outline: as §2

[8] = test system: Italian ryegrass (Lolium multiflorum); test: Test D pre-/postemergence plant response; conditions: Lolium multiflorum; for pest or weed control at 31 g/ha: 31 g ai/ha; for pest or weed control at 62 g/ha: 62 g ai/ha; for pest or weed control at 125 g/ha: 125 g ai/ha
Outline: as §2

[9] = test system: giant foxtail (Setaria faberii); test: Test D pre-/postemergence plant response; conditions: Setaria faberi, post-emergence, Postemergence, scale 0 to 100 (0 no effect, 100 complete control), read-out: Foxtail, Giant plant response rating
Outline: as §2

[10] = 31 g ai/ha, Preemergence, 0 to 100 scale where 0 is no effect and 100 is complete control
[11] = 125 g ai/ha, postemergence, 0 to 100 scale, 0 no effect, 100 complete control
[12] = Postemergence, 31 g ai/ha, 0 to 100 scale (0 no effect, 100 complete control)
[13] = Preemergence, 125 g ai/ha, 0 to 100 scale (0 no effect, 100 complete control)
[14] = post-emergence, Postemergence, scale 0 to 100, 0 no effect, 100 complete control, read-out: Plant response rating, Velvetleaf
[15] = pre-emergence, Preemergence, scale 0 to 100 (0 no effect, 100 complete control), read-out: Plant response rating, Velvetleaf
[16] = post-emergence, Postemergence, scale 0 to 100 (0 no effect, 100 complete control), read-out: Crabgrass, Large plant response rating
[17] = post-emergence, Postemergence, scale 0 to 100, 0 no effect, 100 complete control, read-out: Plant response rating, Crabgrass, Large
[18] = pre-emergence, Preemergence, scale 0 to 100 (0 no effect, 100 complete control), read-out: Plant response rating, Crabgrass, Large
[19] = post-emergence, Postemergence, scale 0 to 100, 0 no effect, 100 complete control, read-out: Plant response rating, Morningglory
[20] = pre-emergence, Preemergence, scale 0 to 100 (0 no effect, 100 complete control), read-out: Plant response rating, Morningglory
[21] = post-emergence, Postemergence, scale 0 to 100, 0 no effect, 100 complete control, read-out: Plant response rating, Waterhemp
[22] = pre-emergence, Preemergence, scale 0 to 100 (0 no effect, 100 complete control), read-out: Plant response rating, Waterhemp
[23] = post-emergence, Postemergence, scale 0 to 100, 0 no effect, 100 complete control, read-out: Plant response rating, Ryegrass, Italian
[24] = pre-emergence, Preemergence, scale 0 to 100 (0 no effect, 100 complete control), read-out: Plant response rating, Ryegrass, Italian

Q: Which “Plant response rating, Ragweed” value [1, 10] does the source give for `Fc1cccc(Oc2ncc(Br)cn2)c1-c1cc(C(F)F)no1` [Compound 145, 5-bromo-2-[2-[3-(difluoromethyl)-5-isoxazolyl]-3-fluorophenoxy]pyrimidine] here?
A: 0

Q: What about the “Plant response rating, Ragweed” value [1, 11] of the same compound?
A: 50

Q: What about the “Plant response rating, Ragweed” value [1, 12] of the same compound?
A: 20

Q: And the “Ragweed plant response rating” value [1, 13]?
A: 20

Q: And the “Plant response rating, Ryegrass, Italian” value [2, 10]?
A: 0

Q: What about the “Plant response rating, Ryegrass, Italian” value [2, 11] of the same compound?
A: 80

Q: And the “Plant response rating, Ryegrass, Italian” value [2, 12]?
A: 20

Q: And the “Ryegrass, Italian plant response rating” value [2, 13]?
A: 40

Q: What about the “Plant response rating, Kochia” value [3, 10] of the same compound?
A: 90

Q: What about the “Plant response rating, Kochia” value [3, 11] of the same compound?
A: 100

Q: What about the “Plant response rating, Kochia” value [3, 12] of the same compound?
A: 100

Q: What about the “Kochia plant response rating” value [3, 13] of the same compound?
A: 100

Q: What about the pest or weed control at 31 g/ha ([4]; post-emergence, Postemergence, scale 0 to 100 (0 no effect, 100 complete control), read-out: Velvetleaf plant response rating) of the same compound?
A: 70%

Q: What about the pest or weed control at 62 g/ha [4, 14] of the same compound?
A: 75%

Q: What about the pest or weed control at 125 g/ha [4, 14] of the same compound?
A: 80%

Q: What about the pest or weed control at 125 g/ha ([4]; pre-emergence, Preemergence, read-out: Plant response rating (scale 0 to 100), Velvetleaf) of the same compound?
A: 100%

Q: What about the pest or weed control at 16 g/ha ([4]; pre-emergence, Preemergence, 16 g ai/ha, scale 0 to 100 (0 no effect, 100 complete control), read-out: Plant response rating, Velvetleaf) of the same compound?
A: 90%

Q: What about the pest or weed control at 31 g/ha [4, 15] of the same compound?
A: 100%

Q: What about the pest or weed control at 62 g/ha [4, 15] of the same compound?
A: 100%

Q: What about the pest or weed control at 16 g/ha [5, 16] of the same compound?
A: 5%

Q: What about the pest or weed control at 31 g/ha [5, 16] of the same compound?
A: 10%

Q: What about the pest or weed control at 62 g/ha [5, 17] of the same compound?
A: 10%

Q: And the pest or weed control at 125 g/ha [5, 17]?
A: 20%

Q: And the pest or weed control at 125 g/ha ([5]; pre-emergence, Preemergence, read-out: Plant response rating (scale 0 to 100), Crabgrass, Large)?
A: 100%

Q: And the pest or weed control at 16 g/ha [5, 18]?
A: 85%

Q: And the pest or weed control at 31 g/ha [5, 18]?
A: 100%

Q: What about the pest or weed control at 62 g/ha [5, 18] of the same compound?
A: 100%

Q: What about the pest or weed control at 31 g/ha ([6]; post-emergence, Postemergence, scale 0 to 100 (0 no effect, 100 complete control), read-out: Morningglory plant response rating) of the same compound?
A: 85%

Q: And the pest or weed control at 62 g/ha [6, 19]?
A: 85%

Q: And the pest or weed control at 125 g/ha [6, 19]?
A: 80%

Q: What about the pest or weed control at 125 g/ha ([6]; pre-emergence, Preemergence, read-out: Plant response rating (scale 0 to 100), Morningglory) of the same compound?
A: 100%

Q: What about the pest or weed control at 16 g/ha ([6]; pre-emergence, Preemergence, 16 g ai/ha, scale 0 to 100 (0 no effect, 100 complete control), read-out: Plant response rating, Morningglory) of the same compound?
A: 15%

Q: What about the pest or weed control at 31 g/ha [6, 20] of the same compound?
A: 55%

Q: What about the pest or weed control at 62 g/ha [6, 20] of the same compound?
A: 90%

Q: What about the pest or weed control at 31 g/ha ([7]; post-emergence, Postemergence, scale 0 to 100 (0 no effect, 100 complete control), read-out: Waterhemp plant response rating) of the same compound?
A: 90%

Q: What about the pest or weed control at 62 g/ha [7, 21] of the same compound?
A: 100%

Q: And the pest or weed control at 125 g/ha [7, 21]?
A: 100%

Q: And the pest or weed control at 125 g/ha ([7]; pre-emergence, Preemergence, read-out: Plant response rating (scale 0 to 100), Waterhemp)?
A: 100%

Q: What about the pest or weed control at 16 g/ha ([7]; pre-emergence, Preemergence, 16 g ai/ha, scale 0 to 100 (0 no effect, 100 complete control), read-out: Plant response rating, Waterhemp) of the same compound?
A: 100%

Q: And the pest or weed control at 31 g/ha [7, 22]?
A: 100%

Q: What about the pest or weed control at 62 g/ha [7, 22] of the same compound?
A: 100%

Q: What about the pest or weed control at 31 g/ha ([8]; post-emergence, Postemergence, scale 0 to 100 (0 no effect, 100 complete control), read-out: Ryegrass, Italian plant response rating) of the same compound?
A: 0%

Q: What about the pest or weed control at 62 g/ha [8, 23] of the same compound?
A: 10%

Q: What about the pest or weed control at 125 g/ha [8, 23] of the same compound?
A: 10%

Q: What about the pest or weed control at 125 g/ha ([8]; pre-emergence, Preemergence, read-out: Plant response rating (scale 0 to 100), Ryegrass, Italian) of the same compound?
A: 85%

Q: And the pest or weed control at 16 g/ha ([8]; pre-emergence, Preemergence, 16 g ai/ha, scale 0 to 100 (0 no effect, 100 complete control), read-out: Plant response rating, Ryegrass, Italian)?
A: 0%

Q: What about the pest or weed control at 31 g/ha [8, 24] of the same compound?
A: 35%

Q: And the pest or weed control at 62 g/ha [8, 24]?
A: 70%

Q: What about the pest or weed control at 16 g/ha ([9]; 16 g ai/ha) of the same compound?
A: 5%

Q: And the pest or weed control at 31 g/ha ([9]; 31 g ai/ha)?
A: 10%

From US10131652B2, “Pyrimidinyloxy benzene derivatives as herbicides” (E. I. DU PONT DE NEMOURS AND COMPANY, priority 2014, dated 2018)
